The results in this text go back to ChEMBL document CHEMBL1201862, “PubChem BioAssay data set” (2004).

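Grown in 96-well plates, cells were treated for 48 hours with each compound at five concentrations. Insufficient inhibition: endpoint recorded as highest concentration tested. GI50 marks 50% less growth.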 Activity calls are given as the source filed them. Rule as the data show it: active = GI50 up to about 1.1 µM and inactive = higher. Bounds are passed on as bounds.

Test systems include SNB-19; SF-295; 786-0; HT-29; SF-539; T47D; OVCAR-3; KM12; K562; BT-549; OVCAR-4; HOP-62; U-251; SF-268; DU-145; RXF 393; Malme-3M; NCI-H522; LOX IMVI.
What all share (assay): NCI tumour cell line growth inhibition, 48 h

Turning to `Clc1ccc2nc3[nH]nc(Cl)c3nc2c1`, the GI50 in the test on SNB-19 was 45.6 µM (inactive); in the test on SF-295 it was 72.6 µM (inactive); in the test with 786-0, 61.5 µM (inactive); with HT-29, 59.3 µM (inactive); in the test on SF-539, 40.8 µM (inactive); with T47D, 44.1 µM (inactive). The GI50 in the test on OVCAR-3 was 66.8 µM (inactive); with KM12, 59.3 µM (inactive); in the test on K562, 52.4 µM (inactive); in the test on BT-549 it was 28.4 µM (inactive); with OVCAR-4, 63.2 µM (inactive); in the test on HOP-62, 53.5 µM (inactive). Also, the GI50 in the test on U-251 was 60.7 µM (inactive); with SF-268 it was 47.9 µM (inactive); in the test on DU-145 it was 50.7 µM (inactive); in the test with RXF 393, 35 µM (inactive).

As for `CCNC1=C(NC(=O)CC)C(=O)c2ccccc2C1=O`, the GI50 with SNB-19 is > 100 µM (inactive); in the test with SF-295, > 100 µM (inactive); in the test on 786-0, > 100 µM (inactive); with Malme-3M, 22.9 µM (inactive); in the test on HT-29 it was 34.8 µM (inactive); in the test on SF-539, > 100 µM (inactive). Further, the GI50 was 46.1 µM (inactive) with NCI-H522; > 100 µM (inactive) with T47D; 32.1 µM (inactive) with OVCAR-3; > 100 µM (inactive) in the test on KM12; > 100 µM (inactive) with K562; > 100 µM (inactive) in the test with BT-549. The GI50 in the test on OVCAR-4 was 87.3 µM (inactive); in the test with HOP-62 it was > 100 µM (inactive); in the test on U-251, > 100 µM (inactive); with SF-268, > 100 µM (inactive); in the test with DU-145 it was > 100 µM (inactive); in the test with RXF 393, 48.1 µM (inactive).

On to `Cc1n[nH]c(=O)n1N1C(=O)c2ccccc2C1=O`, for which the GI50 in the test on SNB-19, with SF-295, with 786-0, in the test on Malme-3M, in the test on HT-29 and with SF-539 was > 100 µM (inactive) each time. Moreover, the GI50 in the test with T47D, in the test with OVCAR-3, in the test with KM12, in the test on K562, in the test with LOX IMVI and in the test on BT-549 was > 100 µM (inactive) each time. Further, the GI50 in the test with OVCAR-4, with HOP-62, in the test on U-251 and in the test with DU-145 was > 100 µM (inactive) in each case.

As for `CCCCC/C=C1/CC(CO)(COC(=O)CC(C(C)C)C(C)C)OC1=O` (configuration not stated), the GI50 is 7.62 µM (inactive) in the test with SNB-19; 5.73 µM (inactive) with SF-295; 8.53 µM (inactive) in the test on 786-0; 3.27 µM (inactive) in the test with Malme-3M; 19.5 µM (inactive) in the test with HT-29; 16.4 µM (inactive) in the test on NCI-H522. Moreover, the GI50 in the test with T47D is 17.5 µM (inactive); in the test with OVCAR-3, 17.7 µM (inactive); in the test on KM12, 16.9 µM (inactive); with K562 it was 5.75 µM (inactive); in the test on BT-549, 14.8 µM (inactive); with OVCAR-4, 26.5 µM (inactive). The GI50 in the test with HOP-62 is 7.74 µM (inactive); in the test on U-251, 14.1 µM (inactive); with SF-268, 16.4 µM (inactive); in the test on DU-145, 13.4 µM (inactive); in the test with RXF 393 it was 16.3 µM (inactive).

In the case of `CN(CCO)CCCC1COc2ccccc2O1` (configuration not stated), the GI50 was > 100 µM (inactive) in the test on SNB-19; 51.3 µM (inactive) in the test with SF-295; > 100 µM (inactive) in the test on 786-0; > 100 µM (inactive) in the test on Malme-3M; > 100 µM (inactive) in the test with HT-29; > 100 µM (inactive) with SF-539. For the same compound, the GI50 in the test with NCI-H522, in the test with OVCAR-3, with K562, with BT-549, in the test on OVCAR-4 and in the test on HOP-62 was > 100 µM (inactive) in each case. The GI50 in the test on U-251 was > 100 µM (inactive); in the test with SF-268, 20.7 µM (inactive); in the test on DU-145, > 100 µM (inactive); in the test with RXF 393 it was > 100 µM (inactive).

`COC(=O)[C@@]12CSC[C@]1(C(=O)OC)N[C@@H](c1ccccc1O)C2`: the GI50 with SNB-19, in the test with SF-295, with 786-0, with Malme-3M, in the test with HT-29 and with SF-539 was > 100 µM (inactive) throughout. For the same compound, the GI50 in the test with NCI-H522, with T47D, with OVCAR-3, in the test with KM12, in the test with K562 and in the test on BT-549 was > 100 µM (inactive) each time. In addition, the GI50 with OVCAR-4, in the test on HOP-62, with U-251, in the test on SF-268, with DU-145 and with RXF 393 was > 100 µM (inactive) in each case.

As for `O/N=N\c1nc(-c2ccccn2)nc2ccccc12`, the GI50 is 42.3 µM (inactive) with SNB-19; 22 µM (inactive) in the test with SF-295; 3.68 µM (inactive) in the test with 786-0; 1.24 µM (inactive) with Malme-3M; 0.611 µM (active) with HT-29; 17.1 µM (inactive) in the test on SF-539. In addition, the GI50 with NCI-H522 is 1.89 µM (inactive); with T47D it was 2.83 µM (inactive); in the test on OVCAR-3 it was 0.743 µM (active); in the test with KM12, 20.6 µM (inactive); with K562, 2.23 µM (inactive); in the test with BT-549 it was 20.8 µM (inactive). Also, the GI50 in the test on OVCAR-4 was 8.05 µM (inactive); in the test with HOP-62 it was 1.98 µM (inactive); in the test on U-251 it was 17.5 µM (inactive); in the test with SF-268, 11.7 µM (inactive); with DU-145, 15 µM (inactive).

For `CCCCSC1=N/C(=C\c2ccco2)C(=O)N1`, the GI50 was 63.8 µM (inactive) with SNB-19; 45.5 µM (inactive) in the test with SF-295; 87.3 µM (inactive) in the test on 786-0; 29.2 µM (inactive) in the test with Malme-3M; 47.6 µM (inactive) in the test on HT-29; 28.9 µM (inactive) in the test on NCI-H522. Also, the GI50 is 16.5 µM (inactive) with T47D; 48.4 µM (inactive) in the test with OVCAR-3; 37.6 µM (inactive) in the test with KM12; 33.2 µM (inactive) in the test on BT-549; 60.1 µM (inactive) in the test on OVCAR-4; > 100 µM (inactive) in the test on HOP-62. Further, the GI50 was 74.6 µM (inactive) with U-251, 41.3 µM (inactive) with SF-268, 67.8 µM (inactive) in the test with DU-145 and 12.1 µM (inactive) in the test with RXF 393.

Take `Cc1c(/C=N\NC(=S)N2CCN(C(=S)N/N=C\c3c(C)n(C)n(-c4ccccc4)c3=O)CC2)c(=O)n(-c2ccccc2)n1C`: the GI50 is 47.5 µM (inactive) in the test on SNB-19; 28.4 µM (inactive) in the test with SF-295; 33.7 µM (inactive) in the test with 786-0; 72.4 µM (inactive) in the test with Malme-3M; 13.1 µM (inactive) in the test with HT-29; > 100 µM (inactive) in the test on SF-539. For the same compound, the GI50 was 60.7 µM (inactive) with NCI-H522; 36.1 µM (inactive) in the test on T47D; 51.9 µM (inactive) in the test on OVCAR-3; 69.7 µM (inactive) with KM12; 44 µM (inactive) with BT-549; > 100 µM (inactive) in the test with OVCAR-4. Further, the GI50 was 37.2 µM (inactive) in the test on HOP-62; 29.1 µM (inactive) in the test on U-251; > 100 µM (inactive) with SF-268; 56 µM (inactive) in the test with DU-145; 67.9 µM (inactive) in the test on RXF 393.

Take `COc1c(Br)cc(/C=C(\C#N)c2cccnc2)cc1Br`: the GI50 in the test with SNB-19 was > 100 µM (inactive); in the test with SF-295 it was 52.7 µM (inactive); in the test on 786-0 it was > 100 µM (inactive); in the test on Malme-3M, > 100 µM (inactive); with HT-29, 26.4 µM (inactive); in the test on SF-539 it was 43.7 µM (inactive). For the same compound, the GI50 is 42.1 µM (inactive) with NCI-H522; 99.1 µM (inactive) with OVCAR-3; 33.1 µM (inactive) with KM12; 80.9 µM (inactive) with K562; 30.5 µM (inactive) in the test with BT-549; 81.5 µM (inactive) in the test on OVCAR-4. In addition, the GI50 is 54.8 µM (inactive) in the test with HOP-62; 36.3 µM (inactive) with U-251; 67.6 µM (inactive) in the test on SF-268; > 100 µM (inactive) in the test on DU-145; 51.5 µM (inactive) in the test on RXF 393.

For the compound `COC(=O)c1cc2c(cc1CC1Cc3cc4c(cc3C1=O)CCC4)CCC2` (configuration not stated), the GI50 in the test with SNB-19 was > 100 µM (inactive); with SF-295, 30.7 µM (inactive); in the test on 786-0, 83.8 µM (inactive); in the test with Malme-3M, 53 µM (inactive); in the test on HT-29, 31.7 µM (inactive); in the test with SF-539 it was 58.9 µM (inactive). In addition, the GI50 in the test with NCI-H522 was 34.1 µM (inactive); in the test on T47D it was 24.9 µM (inactive); in the test with OVCAR-3 it was 57.4 µM (inactive); in the test with KM12, 32.4 µM (inactive); in the test on K562, 20.2 µM (inactive); in the test on LOX IMVI, 41.4 µM (inactive). Further, the GI50 is 40.1 µM (inactive) in the test with BT-549; 50.4 µM (inactive) with OVCAR-4; > 100 µM (inactive) in the test on HOP-62; 46 µM (inactive) in the test on U-251; > 100 µM (inactive) with SF-268; > 100 µM (inactive) with DU-145.

For the compound `COC1(CCO)CC=CCC1(CCO)OC` (configuration not stated), the GI50 in the test with SNB-19, with SF-295, with 786-0, in the test on Malme-3M, with HT-29 and in the test on NCI-H522 was > 100 µM (inactive) in each case. Further, the GI50 in the test on T47D, with OVCAR-3, in the test on KM12, with K562, with LOX IMVI and with BT-549 was > 100 µM (inactive) each time. Besides, the GI50 with OVCAR-4, in the test on HOP-62, in the test with SF-268 and with DU-145 was > 100 µM (inactive) throughout.
